The test system of assay [1] is DoHH2. As to the kind of experiment: CellTiter-Glo proliferation/viability assay. Conditions: Homo sapiens, DOHH-2. The format is cell-based, human. (In general: In ATP-based viability assays light output follows the ATP content of the culture.)
The test system of assay [2] is Ramos. The assay is described as follows: CellTiter-Glo proliferation/viability assay. The format is cell-based, human. Conditions: Homo sapiens, Ramos, read-out: Ramos EC50.
Assay [3] has as its target T1, Lyn (Homo sapiens (Human), UniProt P07948). Conditions: read-out: Lyn IC50.
Assay [4] has as its target Src (Homo sapiens (Human), UniProt P12931). As to the kind of experiment: biochemical.
Assay [5] has as its target T1, Lyn. As to the kind of experiment: biochemical.
In assay [6] the target is BTK (Homo sapiens (Human), UniProt Q06187).

SMILES strings stand for the structures. Read-outs that look alike come from different tables or passages of the source. Some results are limits rather than exact numbers.

BTK, sequence (Q06187 whole entry): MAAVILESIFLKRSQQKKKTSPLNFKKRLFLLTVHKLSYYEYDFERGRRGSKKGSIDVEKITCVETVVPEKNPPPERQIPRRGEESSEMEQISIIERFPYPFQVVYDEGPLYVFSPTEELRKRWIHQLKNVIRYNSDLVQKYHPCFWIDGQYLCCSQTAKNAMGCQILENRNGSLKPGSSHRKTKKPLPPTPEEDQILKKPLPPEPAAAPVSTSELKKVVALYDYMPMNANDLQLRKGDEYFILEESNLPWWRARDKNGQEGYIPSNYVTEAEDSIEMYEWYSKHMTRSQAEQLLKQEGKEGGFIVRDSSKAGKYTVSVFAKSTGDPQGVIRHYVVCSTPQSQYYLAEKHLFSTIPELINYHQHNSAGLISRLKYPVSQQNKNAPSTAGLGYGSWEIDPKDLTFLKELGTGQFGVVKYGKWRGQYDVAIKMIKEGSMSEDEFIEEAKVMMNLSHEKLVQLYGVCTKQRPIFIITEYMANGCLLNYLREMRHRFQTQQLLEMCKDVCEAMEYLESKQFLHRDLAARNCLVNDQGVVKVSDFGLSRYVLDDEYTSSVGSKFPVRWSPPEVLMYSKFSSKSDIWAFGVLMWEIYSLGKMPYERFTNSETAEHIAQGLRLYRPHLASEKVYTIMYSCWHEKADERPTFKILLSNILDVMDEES
T1 sequence (P07948 whole entry): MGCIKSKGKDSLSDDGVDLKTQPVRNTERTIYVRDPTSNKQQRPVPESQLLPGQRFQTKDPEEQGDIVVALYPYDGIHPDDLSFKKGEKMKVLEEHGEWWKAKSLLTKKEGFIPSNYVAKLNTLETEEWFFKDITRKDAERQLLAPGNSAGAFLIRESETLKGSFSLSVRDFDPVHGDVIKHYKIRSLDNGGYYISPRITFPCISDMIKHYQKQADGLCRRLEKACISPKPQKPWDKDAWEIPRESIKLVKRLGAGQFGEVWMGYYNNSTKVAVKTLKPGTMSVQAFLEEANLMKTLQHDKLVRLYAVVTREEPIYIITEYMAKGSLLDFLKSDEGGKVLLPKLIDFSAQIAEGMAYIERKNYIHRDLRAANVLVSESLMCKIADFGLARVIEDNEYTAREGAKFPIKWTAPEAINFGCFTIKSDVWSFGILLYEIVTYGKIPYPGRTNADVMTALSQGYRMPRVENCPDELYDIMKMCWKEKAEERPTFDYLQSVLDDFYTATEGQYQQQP
Src, sequence (P12931 whole entry, looked up): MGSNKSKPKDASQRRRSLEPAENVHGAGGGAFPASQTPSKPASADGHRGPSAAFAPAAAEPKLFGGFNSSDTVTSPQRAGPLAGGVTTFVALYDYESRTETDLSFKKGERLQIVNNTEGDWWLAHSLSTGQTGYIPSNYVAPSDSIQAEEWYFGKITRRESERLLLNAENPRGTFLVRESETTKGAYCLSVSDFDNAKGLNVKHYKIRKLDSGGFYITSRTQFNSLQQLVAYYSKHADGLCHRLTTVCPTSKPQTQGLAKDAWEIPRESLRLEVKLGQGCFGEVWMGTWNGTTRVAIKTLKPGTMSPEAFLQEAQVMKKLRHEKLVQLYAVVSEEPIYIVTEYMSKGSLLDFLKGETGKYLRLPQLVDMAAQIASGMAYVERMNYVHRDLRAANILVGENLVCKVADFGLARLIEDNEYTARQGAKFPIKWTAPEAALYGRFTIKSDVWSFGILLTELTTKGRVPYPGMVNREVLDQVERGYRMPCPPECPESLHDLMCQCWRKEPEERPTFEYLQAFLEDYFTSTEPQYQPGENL

The IC50 is the midpoint of a concentration-inhibition curve. `CCN(CC)CCOc1ccc(Nc2cc3c(cn2)cc(C(C)C)c(=O)n3-c2ccccc2)nc1` [Compound 18, 7-[5-(2-Diethylamino-ethoxy)-pyridin-2-ylamino]-3-isopropyl-1-phenyl-1H-[1,6]naphthyridin-2-one]: the EC50 in assay [1] (48 hrs, read-out: DoHH2 EC50) is under 1 µM; in assay [1] (Table 4, DoHH2 cells, read-out: EC50 (Proliferation)) it was under 1 µM; in assay [2] (48 h), over 10 µM. In addition, the IC50 in assay [3], in assay [4] and in assay [5] was 0.1 to 1 µM in each case.

On to `CCn1c(=O)c(-c2ccccc2C)cc2cnc(Nc3ccc(C)cn3)cc21` [Compound 45, 1-ethyl-7-(5-methylpyr—idin-2-ylamino)-3-o-tolyl-1,6-naphthyridin-2(1H)-one], for which the EC50 is over 10 µM in assay [1] (48 hrs, read-out: DoHH2 EC50) and over 10 µM in assay [2] (48 h). The IC50 in assay [3], in assay [4], in assay [5], in assay [6] and in assay [6] (read-out: BTK IC50) was 0.1 to 1 µM in each case.

As to `CCn1c(=O)c(-c2ccccc2)cc2cnc(Nc3ccc(N(C)C)cn3)cc21` [Compound 64, 7-(5-Dimethylamino-pyridin-2-ylamino)-1-ethyl-3-phenyl-1H-[1,6]naphthyridin-2-one], the EC50 in assay [1] (48 hrs, read-out: DoHH2 EC50) is under 1 µM; in assay [2] (48 hrs), over 10 µM. The figures for the IC50 in assay [4], in assay [5] and in assay [6] were 0.1 to 1 µM, 0.1 to 1 µM and 1 to 5 µM, respectively.

For `CCN(CC)CCOc1ccc(Nc2cc3c(cn2)cc(-c2ccccc2)c(=O)n3CC2CCN(C)C2)nc1` (stereo not drawn) [Compound 65, 7-((5-(2-(diethylamino)ethoxy)pyridin-2-yl)amino)-1-((1-methylpyrrolidin-3-yl)methyl)-3-phenyl-1,6-naphthyridin-2(1H)-one], the EC50 in assay [1] (48 hrs, read-out: DoHH2 EC50) is under 1 µM; in assay [2] (48 h), over 10 µM. The IC50 is 0.1 to 1 µM in assay [4], 1 to 5 µM in assay [5] (Lyn IC50) and over 5 µM in assay [6] (read-out: BTK IC50).

Regarding `CCN(CC)CCOc1ccc(Nc2cc3c(cn2)cc(-c2ccccc2)c(=O)n3-c2cccnc2)nc1` [Compound 84, 7-[5-(2-Diethylamino-ethoxy)-pyridin-2-ylamino]-3-phenyl-1-pyridin-3-yl-1H-[1,6]naphthyridin-2-one], the EC50 in assay [1] (48 hrs, read-out: DoHH2 EC50) is 1 to 10 µM; in assay [2] (48 hrs), over 10 µM. Further, the IC50 in assay [4] is 0.1 to 1 µM; in assay [5], 1 to 5 µM; in assay [6], 0.1 to 1 µM.

In the case of `CCN(CC)CCOc1ccc(Nc2cc3c(cn2)cc(-c2ccccn2)c(=O)n3CC)nc1` [Compound 102, 7-((5-(2-(diethylamino)ethoxy)pyridin-2-yl)amino)-1-ethyl-3-(pyridin-2-yl)-1,6-naphthyridin-2(1H)-one], the EC50 in assay [1] (48 hrs, read-out: DoHH2 EC50) was 1 to 10 µM; in assay [2] (48 h), over 10 µM. Further, the IC50 in assay [4] was 0.1 to 1 µM; in assay [5] (Lyn IC50) it was 0.1 to 1 µM; in assay [6] (read-out: BTK IC50), over 5 µM.

Take `CCN(CC)CCOc1ccc(Nc2cc3c(cn2)cc(-c2ccc(SC)cc2)c(=O)n3CC)nc1` [Compound 104, 7-((5-(2-(diethylamino)ethoxy)pyridin-2-yl)amino)-1-ethyl-3-(4-(methylthio)phenyl)-1,6-naphthyridin-2(1H)-one]: the EC50 in assay [1] (48 hrs, read-out: DoHH2 EC50) was in the range of 1 to 10 µM; in assay [2] (48 h), 1 to 10 µM. Moreover, the IC50 was 0.1 to 1 µM in assay [4], 0.1 to 1 µM in assay [5] and over 5 µM in assay [6] (read-out: BTK IC50).

Consider `CCn1c(=O)c(-c2ccccc2)cc2cnc(Nc3ccc(CN4CCNCC4)cn3)cc21` [Compound 110, 1-ethyl-3-phenyl-7-((5-(piperazin-1-ylmethyl)pyridin-2-yl)amino)-1,6-naphthyridin-2(1H)-one], for which the EC50 is under 1 µM in assay [1] (48 hrs, read-out: DoHH2 EC50) and 1 to 10 µM in assay [2] (48 hrs). In addition, the half-maximal inhibitory concentration (IC50) in assay [4] is 0.1 to 1 µM; in assay [5] it was 0.1 to 1 µM; in assay [6] (read-out: BTK IC50), under 0.1 µM.

As for `CCn1c(=O)c(-c2ccccc2)cc2cnc(Nc3ccc(CN4CCN(S(C)(=O)=O)CC4)cn3)cc21` [Compound 111, 1-ethyl-7-((5-((4-(methylsulfonyl)piperazin-1-yl)methyl)pyridin-2-yl)amino)-3-phenyl-1,6-naphthyridin-2(1H)-one], the EC50 in assay [1] (48 hrs, read-out: DoHH2 EC50) is under 1 µM; in assay [2] (48 hrs) it was 1 to 10 µM. For the same molecule, the IC50 in assay [4] is 0.1 to 1 µM; in assay [5] it was 0.1 to 1 µM; in assay [6] (read-out: BTK IC50), under 0.1 µM.

Consider `CCn1c(=O)c(-c2ccccc2)cc2cnc(Nc3cn(C)cn3)cc21` [Compound 113, 1-ethyl-7-((1-methyl-1H-imidazol-4-yl)amino)-3-phenyl-1,6-naphthyridin-2(1H)-one], for which the EC50 is over 10 µM in assay [1] (48 hrs, read-out: DoHH2 EC50) and over 10 µM in assay [2] (48 h). In addition, the IC50 in assay [4] was in the range of 0.1 to 1 µM; in assay [5], 0.1 to 1 µM; in assay [6] it was 1 to 5 µM.

For the molecule `CCn1c(=O)c(-c2ccccc2)cc2cnc(Nc3cn(CCOC)cn3)cc21` [Compound 114, 1-ethyl-7-((1-(2-methoxyethyl)-1H-imidazol-4-yl)amino)-3-phenyl-1,6-naphthyridin-2(1H)-one], the EC50 was 1 to 10 µM in assay [1] (48 hrs, read-out: DoHH2 EC50) and over 10 µM in assay [2] (48 h). Further, the IC50 was 0.1 to 1 µM in assay [4], 1 to 5 µM in assay [5] and under 0.1 µM in assay [6] (read-out: BTK IC50).

Regarding `CCn1c(=O)c(-c2cc([S+](C)[O-])ccc2F)cc2cnc(Nc3ccc(N(C)C4CCN(C)CC4)cn3)cc21` (stereo not drawn) [Compound 117, 1-ethyl-3-(2-fluoro-5-(methylsulfinyl)phenyl)-7-((5-(methyl(1-methylpiperidin-4-yl)amino)pyridin-2-yl)amino)-1,6-naphthyridin-2(1H)-one], the EC50 in assay [1] (48 hrs, read-out: DoHH2 EC50) is 1 to 10 µM; in assay [2] (48 h), over 10 µM. Further, the figures for the IC50 in assay [4], in assay [5] and in assay [6] were 0.1 to 1 µM, under 0.1 µM and 0.1 to 1 µM, respectively.

As to `O=c1c(-c2c(F)cccc2F)cc2cnc(Nc3ccc(F)cn3)cc2n1CCO` [Compound 125, 3-(2,6-difluorophenyl)-7-((5-fluoropyridin-2-yl)amino)-1-(2-hydroxyethyl)-1,6-naphthyridin-2(1H)-one], the EC50 was under 1 µM in assay [1] (48 hrs, read-out: DoHH2 EC50) and over 10 µM in assay [2] (48 h). The IC50 in assay [4], in assay [5] and in assay [6] was 0.1 to 1 µM in each case.

On to `NCCn1c(=O)c(-c2c(F)cccc2F)cc2cnc(Nc3ccc(F)cn3)cc21` [Compound 127, 1-(2-aminoethyl)-3-(2,6-difluorophenyl)-7-((5-fluoropyridin-2-yl)amino)-1,6-naphthyridin-2(1H)-one], for which the EC50 in assay [1] (48 hrs, read-out: DoHH2 EC50) is 1 to 10 µM; in assay [2] (48 hrs) it was over 10 µM. Besides, the figures for the 50% inhibitory concentration (IC50) in assay [4], in assay [5] and in assay [6] (read-out: BTK IC50) were 0.1 to 1 µM, 0.1 to 1 µM and under 0.1 µM, respectively.

Regarding `COCCn1c(=O)c(C(C)C)cc2cnc(Nc3ccc(F)cn3)cc21` [Compound 128, 7-((5-fluoropyridin-2-yl)amino)-3-isopropyl-1-(2-methoxyethyl)-1,6-naphthyridin-2(1H)-one], the EC50 in assay [1] (48 hrs, read-out: DoHH2 EC50) is 1 to 10 µM; in assay [2] (48 hrs) it was over 10 µM. The concentration for half-maximal inhibition (IC50) in assay [4], in assay [5] and in assay [6] was 1 to 5 µM throughout.

The values above are taken from patent US9714247B2, “Multiple kinase pathway inhibitors” (Mannkind Corporation, priority 2012, dated 2017).
